Consider 13 compounds from patent US10729684B2, “Alkynyl dihydroquinoline sulfonamide compounds” (AMGEN INC., priority 2015, dated 2020).

Data set [1] addresses hNav1.7 (Homo sapiens (Human), UniProt Q15858). Put plainly: Nav 1.7 IWQ in vitro assay (IonWorks Quattro population patch-clamp). The conditions noted are these: HEK 293 cells stably transfected with Nav 1.7. It is filed as cell-based. On the procedure:
Nav 1.7 or Nav 1.5 IWQ In Vitro Assay
HEK 293 Cells stably transfected with either Nav 1.7 or Nav 1.5 were recorded in population patch-clamp mode with the IonWorks® Quattro automated electrophysiology system in accordance with the manufacturer's specifications (Molecular Devices, LLC, Sunnyvale, Calif.). Sodium channel currents were measured in response to a train of depolarizations that induced successively greater inactivation.
Cells were held at −110 mV for three seconds (Nav 1.7) or half a second (Nav 1.5) from a holding voltage of −15 mV, then put through a series of 26 pulses of 150 msec duration to −20 mV at a frequency of 5 Hz. Cells were then left unclamped for a period of 3 to 8 minutes while a single concentration of test compound was added. Cells were then reclamped and put through the same voltage protocol. Current at the end of the 26th pulse to −20 mV was subtracted from the peak current evoked by the 26th pulse to −20 mV to correct for leak current. Percent block was calculated for each concentration in duplicate, and IC50 curves were fitted to percent block as a function of concentration.

Data set [2] can be described thus: RLM in vitro. As to conditions: b278 calls it HLM data in vitro.
In data set [3] the target is human PXR (Homo sapiens (Human), UniProt O75469). Put plainly: human PXR @ 2 uM POC.
For data set [4], the target named is human Nav1.7 (Homo sapiens (Human), UniProt Q15858). Put plainly: Nav 1.7 in vitro PX assay (PatchXpress whole cell voltage clamp). The format is cell-based. The conditions noted are these: HEK 293 cells stably transfected with human Nav1.7, partially inactivated state, read-out: hNav1.7 PX IC50. Here is the method: Nav 1.7 In Vitro PX Assay
HEK 293 cells stably transfected with human Nav1.7 were recorded in whole cell voltage clamp mode with the PatchXpress automated electrophysiology system (Molecular Devices, LLC, Sunnyvale, Calif.). Compound effects were measured on a partially inactivated state of the sodium channel. Cells were clamped to a holding potential yielding 20 to 50% inactivation. To elicit sodium current, channels were activated by pulsing to −10 mV for 20 msec. This voltage protocol was repeated at a rate of 0.1 Hz throughout the experiment. A single concentration of test compound was applied to cells for a duration of 3 minutes. Peak sodium current was measured at the end of the compound addition period to determine percent inhibition. Three to five cells were tested per concentration, and IC50 curves were fitted to percent inhibition as a function of concentration.

Some results are limits rather than exact numbers.

hNav1.7, sequence (Q15858 whole entry): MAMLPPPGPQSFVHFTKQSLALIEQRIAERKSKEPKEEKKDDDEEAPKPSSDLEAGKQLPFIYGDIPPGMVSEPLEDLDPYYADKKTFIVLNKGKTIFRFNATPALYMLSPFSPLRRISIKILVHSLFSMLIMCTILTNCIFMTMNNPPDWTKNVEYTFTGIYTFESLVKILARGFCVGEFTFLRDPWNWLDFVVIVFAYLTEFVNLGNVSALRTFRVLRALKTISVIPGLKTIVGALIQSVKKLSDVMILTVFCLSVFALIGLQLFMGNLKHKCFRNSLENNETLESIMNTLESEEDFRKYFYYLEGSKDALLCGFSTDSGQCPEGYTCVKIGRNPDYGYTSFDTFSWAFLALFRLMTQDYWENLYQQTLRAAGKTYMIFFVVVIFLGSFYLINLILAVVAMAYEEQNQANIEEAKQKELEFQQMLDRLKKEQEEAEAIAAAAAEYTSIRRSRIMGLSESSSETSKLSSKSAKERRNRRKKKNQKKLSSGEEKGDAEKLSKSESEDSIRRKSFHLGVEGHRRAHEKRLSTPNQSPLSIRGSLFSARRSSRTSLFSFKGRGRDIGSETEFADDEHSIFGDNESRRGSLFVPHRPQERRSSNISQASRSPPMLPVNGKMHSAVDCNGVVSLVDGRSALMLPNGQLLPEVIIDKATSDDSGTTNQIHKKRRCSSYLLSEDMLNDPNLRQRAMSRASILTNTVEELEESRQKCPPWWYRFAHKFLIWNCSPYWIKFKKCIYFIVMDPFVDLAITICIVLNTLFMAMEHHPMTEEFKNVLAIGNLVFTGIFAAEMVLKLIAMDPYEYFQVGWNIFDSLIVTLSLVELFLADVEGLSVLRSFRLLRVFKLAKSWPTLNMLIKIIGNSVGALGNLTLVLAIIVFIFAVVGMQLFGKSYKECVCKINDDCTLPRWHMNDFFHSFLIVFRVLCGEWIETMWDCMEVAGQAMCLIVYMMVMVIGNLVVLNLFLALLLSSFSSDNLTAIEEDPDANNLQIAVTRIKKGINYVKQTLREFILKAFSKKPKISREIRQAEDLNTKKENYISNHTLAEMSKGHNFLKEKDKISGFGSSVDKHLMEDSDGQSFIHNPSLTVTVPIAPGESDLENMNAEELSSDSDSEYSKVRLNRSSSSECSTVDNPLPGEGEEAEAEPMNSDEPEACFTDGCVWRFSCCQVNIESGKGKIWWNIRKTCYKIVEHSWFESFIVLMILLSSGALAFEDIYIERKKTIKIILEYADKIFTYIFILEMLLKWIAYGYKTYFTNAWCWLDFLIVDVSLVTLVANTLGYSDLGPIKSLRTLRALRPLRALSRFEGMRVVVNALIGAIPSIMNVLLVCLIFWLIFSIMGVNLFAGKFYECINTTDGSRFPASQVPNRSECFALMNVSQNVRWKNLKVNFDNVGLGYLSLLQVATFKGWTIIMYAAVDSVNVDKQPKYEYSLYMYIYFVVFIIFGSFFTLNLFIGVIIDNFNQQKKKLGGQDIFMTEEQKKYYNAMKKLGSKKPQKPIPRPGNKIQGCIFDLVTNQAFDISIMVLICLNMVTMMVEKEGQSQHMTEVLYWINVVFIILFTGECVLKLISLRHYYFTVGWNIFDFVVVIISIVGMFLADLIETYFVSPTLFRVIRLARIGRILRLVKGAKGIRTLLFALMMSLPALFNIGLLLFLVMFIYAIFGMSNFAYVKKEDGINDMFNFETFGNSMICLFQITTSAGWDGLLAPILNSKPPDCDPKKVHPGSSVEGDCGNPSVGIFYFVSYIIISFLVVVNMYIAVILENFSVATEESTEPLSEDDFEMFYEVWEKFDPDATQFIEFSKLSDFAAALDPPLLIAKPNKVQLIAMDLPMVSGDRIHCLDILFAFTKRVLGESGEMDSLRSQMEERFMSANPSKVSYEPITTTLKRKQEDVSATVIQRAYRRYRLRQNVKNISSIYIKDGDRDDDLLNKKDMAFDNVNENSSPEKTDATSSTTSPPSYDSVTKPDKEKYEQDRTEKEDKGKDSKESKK
human PXR, sequence (O75469 whole entry): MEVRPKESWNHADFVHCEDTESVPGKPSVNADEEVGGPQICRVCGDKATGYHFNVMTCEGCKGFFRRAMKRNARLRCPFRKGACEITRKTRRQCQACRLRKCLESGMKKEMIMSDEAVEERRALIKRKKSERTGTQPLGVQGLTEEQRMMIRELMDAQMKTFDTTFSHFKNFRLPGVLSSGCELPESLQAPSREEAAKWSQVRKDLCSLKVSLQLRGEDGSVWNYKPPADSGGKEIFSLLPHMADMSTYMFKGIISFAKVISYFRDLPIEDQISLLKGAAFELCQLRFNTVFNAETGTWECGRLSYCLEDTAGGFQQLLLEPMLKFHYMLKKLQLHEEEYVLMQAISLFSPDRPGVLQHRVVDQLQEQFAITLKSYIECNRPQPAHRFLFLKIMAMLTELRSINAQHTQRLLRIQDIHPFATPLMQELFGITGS
human Nav1.7, sequence (Q15858 whole entry): as the sequence (Q15858 whole entry) above

For the compound `COc1cc(C#CC2CCC(F)(F)CC2)c(F)cc1-n1c(=O)ccc2cc(S(=O)(=O)Nc3ccon3)ccc21` (atropisomer, axis not shown; (P)) [Example 1, (P)-1-(4-((4,4-difluorocyclohexyl)ethynyl)-5-fluoro-2-methoxyphenyl)-N-(isoxazol-3-yl)-2-oxo-1,2-dihydroquinoline-6-sulfonamide], the IC50 in data set [1] turned out to be 3.3 nM. Besides, in data set [2], the RLM in vitro was less than 14.0 µL/min/mg. Besides, the “human PXR @ 2 uM POCS” value in data set [3] is 2.36%.
`COc1cc(C#CC(C)(C)C(F)(F)F)c(F)cc1-n1c(=O)ccc2cc(S(=O)(=O)Nc3ccon3)ccc21` (atropisomer, axis not shown; (P)) [Example 2, (P)-1-(5-fluoro-2-methoxy-4-(4,4,4-trifluoro-3,3-dimethylbut-1-yn-1-yl)phenyl)-N-(isoxazol-3-yl)-2-oxo-1,2-dihydroquinoline-6-sulfonamide]: the IC50 in data set [1] came to 1.2 nM. The compound also returned an RLM in vitro in data set [2] of less than 14.0 µL/min/mg. In addition, the “human PXR @ 2 uM POCS” value in data set [3] came out at 1.38%.
On to `COc1cc(C#CC2CCCC2)ccc1-n1c(=O)ccc2cc(S(=O)(=O)Nc3ccon3)ccc21` (atropisomer, axis not shown; (P)) [Example 3, (P)-1-(4-(cyclopentylethynyl)-2-methoxyphenyl)-N-(isoxazol-3-yl)-2-oxo-1,2-dihydroquinoline-6-sulfonamide], for which the IC50 in data set [1] was 7.5 nM; in data set [4], 49.7 nM. For the same compound, in data set [2], the RLM in vitro was 39 µL/min/mg. Further, the “human PXR @ 2 uM POCS” value in data set [3] is −1.44%.
With `COc1cc(C#C[C@H]2C[C@@H]2C(F)(F)F)c(F)cc1-n1c(=O)ccc2cc(S(=O)(=O)Nc3ccon3)ccc21` (atropisomer, axis not shown; (P)) [Example 4, (P)-1-(5-fluoro-2-methoxy-4-((2-(trifluoromethyl)cyclopropyl)ethynyl)phenyl)-N-(isoxazol-3-yl)-2-oxo-1,2-dihydroquinoline-6-sulfonamide], the RLM in vitro in data set [2] was less than 14.0 µL/min/mg. For the same compound, the “human PXR @ 2 uM POCS” value in data set [3] is recorded as 13.54%.
For `COc1cc(C#CC2(C(F)(F)F)CC2)c(F)cc1-n1c(=O)ccc2cc(S(=O)(=O)Nc3ccon3)ccc21` (atropisomer, axis not shown; (P)) [Example 5, (P)-1-(5-fluoro-2-methoxy-4-((1-(trifluoromethyl)cyclopropyl)ethynyl)phenyl)-N-(isoxazol-3-yl)-2-oxo-1,2-dihydroquinoline-6-sulfonamide] the same measures were less than 14.0 µL/min/mg and 1.73%.
As to `COc1cc(C#CC2CCCC2)c(Cl)cc1-n1c(=O)ccc2cc(S(=O)(=O)Nc3ccon3)ccc21` (atropisomer, axis not shown; (P)) [Example 6, (P)-1-(5-chloro-4-(cyclopentylethynyl)-2-methoxyphenyl)-N-(isoxazol-3-yl)-2-oxo-1,2-dihydroquinoline-6-sulfonamide], the RLM in vitro in data set [2] worked out at 58 µL/min/mg. Also, the “human PXR @ 2 uM POCS” value in data set [3] is −3.96%.
For `COc1cc(C#CC2CCCC(F)(F)C2)c(F)cc1-n1c(=O)ccc2cc(S(=O)(=O)Nc3ccon3)ccc21` (atropisomer, axis not shown; (P)) [Example 7, (P) 1-(4-((3,3-difluorocyclohexyl)ethynyl)-5-fluoro-2-methoxyphenyl)-N-(isoxazol-3-yl)-2-oxo-1,2-dihydroquinoline-6-sulfonamide] the same measures were less than 14.0 µL/min/mg and −0.78%.
For `COc1cc(C#CC2CCCC2)c(F)cc1-n1c(=O)ccc2cc(S(=O)(=O)Nc3ccon3)ccc21` (atropisomer, axis not shown; (P)) [Example 10, (P)-1-(4-(cyclopentylethynyl)-5-fluoro-2-methoxyphenyl)-N-3-isoxazolyl-2-oxo-1,2-dihydro-6-quinoline Sulfonamide] the same measures were 39.8 µL/min/mg and 2.94%.
`COc1cc(C#CC2CCCC(F)(F)C2)c(F)cc1-n1c(=O)ccc2cc(S(=O)(=O)Nc3ccon3)ccc21` (racemic) [Example 7, (P) 1-(4-((3,3-difluorocyclohexyl)ethynyl)-5-fluoro-2-methoxyphenyl)-N-(isoxazol-3-yl)-2-oxo-1,2-dihydroquinoline-6-sulfonamide]: the IC50 in data set [1] worked out at 7.8 nM.
In data set [1], `COc1cc(C#C[C@@H]2C[C@@H]2C(F)(F)F)c(F)cc1-n1c(=O)ccc2cc(S(=O)(=O)Nc3ccon3)ccc21` (single isomer, unassigned) [Example 4A] came in with an IC50 of 6.8 nM. The same compound displayed an RLM in vitro in data set [2] of less than 14.0 µL/min/mg. Moreover, the “human PXR @ 2 uM POCS” value in data set [3] is reported as 23.19%.
In data set [1], `COc1cc(C#C[C@H]2C[C@@H]2C(F)(F)F)c(F)cc1-n1c(=O)ccc2cc(S(=O)(=O)Nc3ccon3)ccc21` (stereo in doubt) [Example 4, (P)-1-(5-fluoro-2-methoxy-4-((2-(trifluoromethyl)cyclopropyl)ethynyl)phenyl)-N-(isoxazol-3-yl)-2-oxo-1,2-dihydroquinoline-6-sulfonamide] displayed an IC50 of 7 nM.
Turning to `COc1cc(C#C[C@@H]2C[C@H]2C(F)(F)F)c(F)cc1-n1c(=O)ccc2cc(S(=O)(=O)Nc3ccon3)ccc21` (stereo in doubt) [Example 4B, 1-(5-fluoro-2-methoxy-4-(((1R,2R)-2-(trifluoromethyl)cyclopropyl)ethynyl)phenyl)-N-3-isoxazolyl-2-oxo-1,2-dihydro-6-quinolinesulfonamide], 5.5 nM corresponded to half-maximal inhibition in data set [1] (IC50). Further, in data set [2], the RLM in vitro was less than 14.0 µL/min/mg. Moreover, the “human PXR @ 2 uM POCS” value in data set [3] was −3.81%.
In the case of `COc1cc(C#CC2CCCC2)c(F)cc1-n1c(=O)ccc2cc(S(=O)(=O)Nc3cccnn3)ccc21` [Example 9], the IC50 in data set [1] is 8.95 nM; in data set [4], 19.3 nM. In addition, in data set [2], the RLM in vitro turned out to be 32.2 µL/min/mg. In data set [3], the “human PXR @ 2 uM POCS” value is 11.80%.
